# From patent publication US11248229B2, “Inhibition of KMT2D for the treatment of cancer” (MEMORIAL SLOAN-KETTERING CANCER CENTER, priority 2016, dated 2022)
# Legend:
# T47D cells = assay: ER and FOXA1 ChIP-seq upon BYL719 treatment; format: cell-based, human
# Protocol: Cells were crosslinked with 1% paraformaldehyde added directly to the culture medium to a final concentration of 1% and incubated at room temperature for 15 minutes. The crosslinked cells were quenched with ice-cold glycine for 5 minutes, washed with PBS and collected. The cells were then lysed with SDS lysis buffer (10 ml of 1% SDS, 10 mM EDTA, 50 mM Tris-HCl, pH 8.1) containing protease and phosphatase inhibitors for 15 minutes prior to sonication. Cells were sonicated in 10-s pulses for a total of 10 min. […]
# Paired ends 36 bp sequencing was performed at the Genomics Core of Memorial Sloan Kettering Cancer Center using HiSeq (Illumina). Reads were first processed with Trimmomatic to remove the adaptor sequences and bases with quality scores below 20 and reads with less than 30 remaining bases were discarded^34. Trimmed reads were then aligned to hg19 human genome with the bowtie aligner^35. […] To find a set of peaks that are reproducible across the two biological replicates of a given cell condition, the per-replicate P-value of each peak was calculated using only the read count at the peak from the individual replicate and estimated the irreproducible discovery rate (IDR)^37 from the two sets of P-values that the replicates produced. […]
# Differentially accessible peaks from combined atlas were identified with […] by counting all read ends overlapping peaks in each condition. […]
# [1] = system: enhancers or promoters of canonical ER target genes in T47D and MCF7 cells; assay: ChIP-qPCR of ER, FOXA1, PBX1 and H3K4me1/2 occupancy at ER target genes; format: cell-based, human; details: DMSO or BYL719 for 24 h
# Protocol: (§1) Cells were crosslinked with 1% paraformaldehyde added directly to the culture medium to a final concentration of 1% and incubated at room temperature for 15 minutes. The crosslinked cells were quenched with ice-cold glycine for 5 minutes, washed with PBS and collected. The cells were then lysed with SDS lysis buffer (10 ml of 1% SDS, 10 mM EDTA, 50 mM Tris-HCl, pH 8.1) containing protease and phosphatase inhibitors for 15 minutes prior to sonication. Cells were sonicated in 10-s pulses for a total of 10 min. The sheared chromatin was diluted with ChIP Dilution buffer (0.01% SDS, 1.1% Triton X-100, 1.2 mM EDTA, 16.7 mM Tris-HCl, pH 8.1, 167 mM NaCl) and incubated overnight with Protein G Dynabeads (Thermo Fisher Scientific), which were pre-incubated with specific antibodies. ChIP antibodies to the following proteins were used: FOXA1 (ab5089) Abcam, PBX1 (H00005087-MO1) from Abnova, ER alpha (sc-543) from Santa Cruz and rabbit KMT2D homemade antibody which was generated by Eurogentec (third bleed) and affinity purified against GRARLKSTASSIC peptide (SEQ ID NO: 36). […]
# [2] = system: breast tumor samples from patients; assay: ATAC-seq of paired breast tumor biopsies from patients treated with BYL719; format: in vivo, human; details: paired tumor biopsies prior to therapy and on-therapy
# Text: Starting from fastq files containing ATAC-seq paired-end reads, sequencing adaptors were removed using Trimmomatic^34. Trimmed reads were mapped to the hg19 human genome using Bowtie2^35 allowing at most 1 seed mismatch and keeping only uniquely aligned reads. Duplicates were removed using Picard (http://picard.sourceforge.net). For peak-calling the read start sites were adjusted (reads aligning to the +/−strand were offset by +4 bp/−5 bp, respectively) to represent the center of the transposon binding-event, as described in Buenrostro et al.^21 For each samples, ATAC-seq was run on two biological replicates. Peak calling was performed on each condition individually by pooling reads from biological replicates and using MACS2^36 with a permissive P-value threshold (−p 1e−2). To find a set of peaks that are reproducible across the two biological replicates of a given cell condition, we calculated the per-replicate P-value of each peak using only the read count at the peak from the individual replicate and estimated the irreproducible discovery rate (IDR)^37 from the two sets of P-values that the replicates produced. […] Differentially accessible peaks from this atlas were identified with edgeR^38 by counting all read ends overlapping peaks in each condition. edgeR was run with default settings, a fold-change threshold of 2 and FDR <0.01. […]
# KMT2D = assay: ChIP-qPCR time course for KMT2D, H3K4me1 and H3K4me2 upon BYL719; format: cell-based, human; details: BYL719 (1 μM) for 2, 4, 8, 12 and 24 h
# Protocol: as §1
# T47D and MCF7 cells = assay: MTT cell viability assay; format: cell-based, human; details: BYL719 for 5 days
# Text: When indicated, MCF7 or T47D cells were transduced with lentiviruses expressing empty vector (pLKO. 1) or an shRNA against KMT2D (pLKO. 1) (disclosed in Table 1) or shRNA against FOXA1, shFOXA1 #1 TRCN0000014882; shFOXA1 #2: TRCN0000014880; or shRNA against PBX1, shPBX1 #1: TRCN0000020390; shPBX1 #2: TRCN0000020391). When indicated, MCF7 cells were transduced with pTRIPZ vectors (TRE-RFP-miR30/shRNA-UBC-IRES-PURO) targeting PBX1 or FOXA1 knockdown upon doxycycline administration. When indicated, MCF7 cells were transduced with LT3REPIR (pRRL) vector (T3G-dsRED-mirE/shRNA-PGK-PURO-IRES-rtTA3) targeting KMT2D knockdown upon doxycycline administration. For lentiviral production, 293T cells were transfected with pCMV-VSVG, pCMV-dR8.2 and the plasmid of interest using lipofectamine 3000 according to the manufacture's protocol.
# BYL719 was obtained from the Stand Up to Cancer (SU2C) pharmacy. BYL719 was dissolved in DMSO for in vitro experiments. The MTT assay was used to measure cell viability. Briefly, 5000 cells were seeded in 96 well plates, treated with BYL719 for 5 days and assayed using 0.25% MTT (Sigma) and 50 mM sodium succinate (Sigma) for 3 hours. After the formazan crystals were dissolved with DMSO, the absorbance was measured at 570 nm of wavelength. Doxycycline was purchased from Sigma.
# MCF7 xenografts = assay: MCF7 inducible shRNA in vivo xenograft; design: species or system athymic Foxn1nu mice
# Protocol: Animals were maintained based on the institutional guidelines of Memorial Sloan Kettering Cancer Center (Protocol number 12-10-019). 6×10^6 MCF7 cells in 1:1 DF12 media/Matrigel (Corning) were injected subcutaneously into four to six week old female athymic Foxn1^nu mice. Mice were randomized when tumors reached ˜[…] of volume. 5 mice, 10 tumors were then treated with BYL719 (25 mg×kg^−1 in 0.5%) in carboxymethylcellulose (Sigma) daily for the indicated times. Tumors were collected at the end of the experiments, two to four hours after the last treatment.
# Two way t-tests were performed using GraphPad Prism (GraphPad Software), P-values are indicated in the respective graphs. All cellular experiments were repeated at least three times. The in vivo experiments contained 10 tumors for each treatment arm and the sample size was chosen to reflect a difference in means of 20% with a power of 90%. Before the commencement of the in vivo experiments, animals were measured and randomized in groups with similar average tumor volume. Bioinformatics statistics are indicated in the respective method descriptions.
# [3] = system: ER-dependent genes in T47D and MCF7 cells; assay: RT-qPCR of ER-dependent genes in hormone depleted cells; format: cell-based, human; details: cells treated with BYL719 (1 μM) for 24 h
# Text: All cell lines were obtained from ATCC and used at low passages. T47D cells were maintained in RPMI 1640 with 10% FBS, 1% L-glutamine and 1% penicillin-streptomycin. MCF7 cells were maintained in DF-12 DMEM Dulbecco medium with 10% FBS, 1% L-glutamine and 1% penicillin-streptomycin. HEK 293T cells were maintained in DMEM Dulbecco medium supplemented with 10% FBS, 1% L-glutamine and 1% penicillin-streptomycin. For RNA analysis, MCF7 cells or T47D cells underwent hormonal starvation. MCF7 and T47D were cultured for 3 days in phenol-red-free DF12 DMEM and phenol-red-free RPMI respectively, media was supplemented with 5% charcoal/dextran-treated FCS. Cells were induced with E2 (100 nM), BYL719 (1 μM) or vehicle (DMSO) for 24 hours.
# Total RNA was extracted from patient biopsies tissue using TRIzol (Life Technologies) and treated with DNAse before cDNA synthesis. cDNA synthesis was performed using the Bio-Rad cDNA synthesis kit according to the manufacturer's instructions. RNA was isolated from cells using the QIAGEN RNeasy kit. The qPCR SYBR green mix (Applied Biosystems) was used to amplify specific cDNA fragments with the oligonucleotides listed in Extended figure using the ViiA™ Real Time PCR system (Applied Biosystems). The data were analyzed by the change-in-threshold (2^−ΔΔCT) method using Actin or GAPDH as a housekeeping genes to obtain relative RNA expression. […]
compound,measurement,setting,value
Cc1nc(NC(=O)N2CCC[C@H]2C(N)=O)sc1-c1ccnc(C(C)(C)C(F)(F)F)c1 [BYL719],co-occupancy of ER and FOXA1 at specific target loci,T47D cells; BYL719 (1 μM) for 24 h,increased co-occupancy of ER and FOXA1
same,ER binding events (ER ChIP-seq),T47D cells; DMSO or BYL719 for 24 h,induced differential ER binding
same,"binding of ER, FOXA1 and PBX1 to enhancers or promoters of canonical ER target genes",[1],significantly enhanced
same,chromatin accessibility in regions responsive to PI3K inhibition,[2],increase in chromatin accessibility
same,KMT2D recruitment at regulatory regions,KMT2D,peaked at early hours
same,abundance of H3K4me1/2 occupying regulatory regions,KMT2D,elevated at the same time points
same,"cell viability, KMT2D knockdown combined with BYL719",T47D and MCF7 cells; ER-positive cell lines,greater effect
same,viability of cells treated with BYL719 upon FOXA1 and PBX1 silencing,T47D and MCF7 cells; constitutive or inducible shRNAs,decrease the viability
same,antitumor effect of silencing KMT2D in the presence of BYL719,"MCF7 xenografts; MCF7 inducible shKMT2D xenografts, BYL719 daily 25 mg/kg",enhanced
same,anti-tumor activity of BYL719 with FOXA1 silencing,"MCF7 xenografts; MCF7 xenografts, inducible shFOXA1, BYL719 daily 25 mg/kg",markedly increased the anti-tumor activity
same,expression of ER-dependent genes in the absence of KMT2D,[3],decrease of expression
